Laboratory results from ChEMBL document CHEMBL1201862, “PubChem BioAssay data set” (2004).
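48-hour exposure; five concentrations; linearly interpolated endpoints. At the GI50, growth is halved.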 Activity calls are given as the source filed them. Cut-off read from the data, not from the text of the source: active = GI50 up to about 1.1 µM and inactive = higher.

How the values were obtained:
Assay in all cases: inhibition of tumour cell growth, NCI panel, 48 h
MDA-MB-435 = test system: MDA-MB-435
NCI-H460 = test system: NCI-H460
SN12C = test system: SN12C
TK-10 = test system: TK-10
PC-3 = test system: PC-3
BT-549 = test system: BT-549
SR = test system: SR
CCRF-CEM = test system: CCRF-CEM
KM12 = test system: KM12
HCT-15 = test system: HCT-15
Malme-3M = test system: Malme-3M
RPMI-8226 = test system: RPMI-8226
DU-145 = test system: DU-145
HT-29 = test system: HT-29
MCF7 = test system: MCF7
UACC-62 = test system: UACC-62
SK-MEL-5 = test system: SK-MEL-5
Hs-578T = test system: Hs-578T
786-0 = test system: 786-0
UO-31 = test system: UO-31
HL-60 = test system: HL-60
HOP-62 = test system: HOP-62
UACC-257 = test system: UACC-257
CAKI-1 = test system: CAKI-1
IGROV-1 = test system: IGROV-1
MDA-N = test system: MDA-N
SF-539 = test system: SF-539
HCT-116 = test system: HCT-116
MOLT-4 = test system: MOLT-4
SK-MEL-28 = test system: SK-MEL-28
NCI-H226 = test system: NCI-H226
K562 = test system: K562
OVCAR-8 = test system: OVCAR-8
SF-268 = test system: SF-268
COLO 205 = test system: COLO 205
MDA-MB-231 = test system: MDA-MB-231
T47D = test system: T47D
NCI-H23 = test system: NCI-H23
EKVX = test system: EKVX
SNB-19 = test system: SNB-19
ACHN = test system: ACHN
SF-295 = test system: SF-295
HCC 2998 = test system: HCC 2998
A549 = test system: A549
NCI-H522 = test system: NCI-H522
SNB-75 = test system: SNB-75
LOX IMVI = test system: LOX IMVI
SW-620 = test system: SW-620
M14 = test system: M14
A498 = test system: A498
SK-OV-3 = test system: SK-OV-3
OVCAR-3 = test system: OVCAR-3
U-251 = test system: U-251
OVCAR-5 = test system: OVCAR-5
HOP-92 = test system: HOP-92
SK-MEL-2 = test system: SK-MEL-2
OVCAR-4 = test system: OVCAR-4
NCI/ADR-RES = test system: NCI/ADR-RES
RXF 393 = test system: RXF 393

C=CCOCn1cc(F)c(=O)[nH]c1=O
GI50 (MDA-MB-435): > 100 µM (inactive)
GI50 (NCI-H460): > 100 µM (inactive)
GI50 (SN12C): > 100 µM (inactive)
GI50 (TK-10): > 100 µM (inactive)
GI50 (PC-3): > 100 µM (inactive)
GI50 (BT-549): > 100 µM (inactive)
GI50 (SR): > 100 µM (inactive)
GI50 (CCRF-CEM): > 100 µM (inactive)
GI50 (KM12): > 100 µM (inactive)
GI50 (HCT-15): > 100 µM
GI50 (Malme-3M): > 100 µM (inactive)
GI50 (RPMI-8226): > 100 µM (inactive)
GI50 (DU-145): > 100 µM (inactive)
GI50 (HT-29): > 100 µM (inactive)
GI50 (MCF7): > 100 µM (inactive)
GI50 (UACC-62): > 100 µM (inactive)
GI50 (SK-MEL-5): > 100 µM (inactive)
GI50 (Hs-578T): > 100 µM (inactive)
GI50 (786-0): > 100 µM (inactive)
GI50 (UO-31): > 100 µM (inactive)
GI50 (HL-60): > 100 µM (inactive)
GI50 (HOP-62): > 100 µM (inactive)
GI50 (UACC-257): > 100 µM (inactive)
GI50 (CAKI-1): > 100 µM (inactive)
GI50 (IGROV-1): > 100 µM (inactive)
GI50 (MDA-N): > 100 µM (inactive)
GI50 (SF-539): > 100 µM (inactive)
GI50 (HCT-116): > 100 µM (inactive)
GI50 (MOLT-4): > 100 µM (inactive)
GI50 (SK-MEL-28): > 100 µM (inactive)
GI50 (NCI-H226): > 100 µM (inactive)
GI50 (K562): > 100 µM (inactive)
GI50 (OVCAR-8): > 100 µM (inactive)
GI50 (SF-268): > 100 µM (inactive)
GI50 (COLO 205): > 100 µM (inactive)
GI50 (MDA-MB-231): > 100 µM (inactive)
GI50 (T47D): > 100 µM (inactive)
GI50 (NCI-H23): > 100 µM (inactive)
GI50 (EKVX): > 100 µM (inactive)
GI50 (SNB-19): > 100 µM (inactive)
GI50 (ACHN): > 100 µM (inactive)
GI50 (SF-295): > 100 µM (inactive)
GI50 (HCC 2998): > 100 µM (inactive)
GI50 (A549): > 100 µM (inactive)
GI50 (NCI-H522): > 100 µM (inactive)
GI50 (SNB-75): 31.6 µM (inactive)
GI50 (LOX IMVI): > 100 µM (inactive)
GI50 (SW-620): > 100 µM (inactive)
GI50 (M14): > 100 µM (inactive)
GI50 (A498): > 100 µM (inactive)
GI50 (SK-OV-3): > 100 µM (inactive)

c1cc(CSP234N5CCN2CCN3CCN4CC5)ccc1CSP123N4CCN1CCN2CCN3CC4
GI50 (MDA-MB-435): 97.3 µM (inactive)
GI50 (NCI-H460): > 100 µM (inactive)
GI50 (SN12C): > 100 µM (inactive)
GI50 (TK-10): > 100 µM (inactive)
GI50 (PC-3): > 100 µM (inactive)
GI50 (BT-549): > 100 µM (inactive)
GI50 (CCRF-CEM): 27.4 µM (inactive)
GI50 (KM12): > 100 µM (inactive)
GI50 (HCT-15): > 100 µM
GI50 (RPMI-8226): 16.4 µM (inactive)
GI50 (DU-145): > 100 µM (inactive)
GI50 (HT-29): 53.2 µM (inactive)
GI50 (MCF7): > 100 µM (inactive)
GI50 (UACC-62): > 100 µM (inactive)
GI50 (OVCAR-3): 76.4 µM (inactive)
GI50 (SK-MEL-5): > 100 µM (inactive)
GI50 (Hs-578T): > 100 µM (inactive)
GI50 (786-0): > 100 µM (inactive)
GI50 (U-251): 68.5 µM (inactive)
GI50 (UO-31): 99.8 µM (inactive)
GI50 (HL-60): 0.465 µM (active)
GI50 (HOP-62): > 100 µM (inactive)
GI50 (UACC-257): > 100 µM (inactive)
GI50 (CAKI-1): > 100 µM (inactive)
GI50 (IGROV-1): > 100 µM (inactive)
GI50 (OVCAR-5): > 100 µM (inactive)
GI50 (HOP-92): 92.3 µM (inactive)
GI50 (MDA-N): > 100 µM (inactive)
GI50 (SF-539): 64.6 µM (inactive)
GI50 (HCT-116): 72.8 µM (inactive)
GI50 (MOLT-4): 91.4 µM (inactive)
GI50 (SK-MEL-28): > 100 µM (inactive)
GI50 (K562): < 0.01 µM (active)
GI50 (OVCAR-8): > 100 µM (inactive)
GI50 (SF-268): > 100 µM (inactive)
GI50 (COLO 205): > 100 µM (inactive)
GI50 (MDA-MB-231): 62.7 µM (inactive)
GI50 (T47D): > 100 µM (inactive)
GI50 (SK-MEL-2): > 100 µM (inactive)
GI50 (NCI-H23): > 100 µM (inactive)
GI50 (OVCAR-4): > 100 µM (inactive)
GI50 (EKVX): > 100 µM (inactive)
GI50 (SNB-19): > 100 µM (inactive)
GI50 (ACHN): > 100 µM (inactive)
GI50 (SF-295): > 100 µM (inactive)
GI50 (HCC 2998): > 100 µM (inactive)
GI50 (NCI/ADR-RES): > 100 µM (inactive)
GI50 (A549): > 100 µM (inactive)
GI50 (NCI-H522): 52 µM (inactive)
GI50 (SNB-75): > 100 µM (inactive)
GI50 (LOX IMVI): 49.1 µM (inactive)
GI50 (SW-620): > 100 µM (inactive)
GI50 (M14): > 100 µM (inactive)

C=C1C(=O)OC2/C=C(\C)C(O)CC(O)C(C)(O)CC(OC(=O)/C(C)=C/C)C12 (stereo unspecified)
GI50 (MDA-MB-435): 36.5 µM (inactive)
GI50 (NCI-H460): 32.1 µM (inactive)
GI50 (SN12C): 39.8 µM (inactive)
GI50 (TK-10): > 67.5 µM (inactive)
GI50 (PC-3): 46.1 µM (inactive)
GI50 (BT-549): 26.1 µM (inactive)
GI50 (CCRF-CEM): 34.3 µM (inactive)
GI50 (KM12): 29.6 µM (inactive)
GI50 (HCT-15): 28.4 µM
GI50 (Malme-3M): 50 µM (inactive)
GI50 (RPMI-8226): 23 µM (inactive)
GI50 (DU-145): 34.3 µM (inactive)
GI50 (HT-29): 39.6 µM (inactive)
GI50 (MCF7): 56.8 µM (inactive)
GI50 (UACC-62): 33.7 µM (inactive)
GI50 (OVCAR-3): 44.2 µM (inactive)
GI50 (SK-MEL-5): 36.7 µM (inactive)
GI50 (Hs-578T): 44.2 µM (inactive)
GI50 (786-0): 41.5 µM (inactive)
GI50 (U-251): 38.1 µM (inactive)
GI50 (UO-31): 44.6 µM (inactive)
GI50 (HL-60): 39.9 µM (inactive)
GI50 (HOP-62): > 100 µM (inactive)
GI50 (UACC-257): 83.8 µM (inactive)
GI50 (CAKI-1): 29 µM (inactive)
GI50 (RXF 393): > 60.1 µM (inactive)
GI50 (IGROV-1): 31.7 µM (inactive)
GI50 (OVCAR-5): > 73.8 µM (inactive)
GI50 (HOP-92): 41.9 µM (inactive)
GI50 (MDA-N): 37.3 µM (inactive)
GI50 (SF-539): 42.4 µM (inactive)
GI50 (HCT-116): 32.9 µM (inactive)
GI50 (MOLT-4): 1.34 µM (inactive)
GI50 (SK-MEL-28): 47.9 µM (inactive)
GI50 (NCI-H226): 33.4 µM (inactive)
GI50 (K562): 32.6 µM (inactive)
GI50 (OVCAR-8): 32.5 µM (inactive)
GI50 (SF-268): 42.3 µM (inactive)
GI50 (COLO 205): 57.8 µM (inactive)
GI50 (MDA-MB-231): 49.5 µM (inactive)
GI50 (T47D): 65.5 µM (inactive)
GI50 (SK-MEL-2): 43.1 µM (inactive)
GI50 (NCI-H23): 46.9 µM (inactive)
GI50 (OVCAR-4): 45.2 µM (inactive)
GI50 (EKVX): 43.1 µM (inactive)
GI50 (SNB-19): 66.5 µM (inactive)
GI50 (ACHN): 39.2 µM (inactive)
GI50 (SF-295): 55.1 µM (inactive)
GI50 (HCC 2998): 34.9 µM (inactive)
GI50 (A549): 53.6 µM (inactive)
GI50 (NCI-H522): 28.1 µM (inactive)
GI50 (SNB-75): 38.2 µM (inactive)
GI50 (LOX IMVI): 32.3 µM (inactive)
GI50 (SW-620): 35.6 µM (inactive)
GI50 (M14): 60.1 µM (inactive)
GI50 (A498): 42.2 µM (inactive)
GI50 (SK-OV-3): 53.5 µM (inactive)
